Results taken from patent US6972291B2, “Method for reducing food intake” (priority 2002, dated 2005).
Counter-ions that a name gives are not always drawn. Like-named read-outs stand apart in the source and are kept apart here.

Columns and labels:
[1] = system: food or carbohydrate craving in patients; assay: Low-dose naltrexone patient study: subjective naltrexone efficacy rating (zero to ten) on food or carbohydrate craving; type: in vivo, human; conditions: obese person
[2] = system: animals; conditions: cited from earlier work
[3] = system: carbohydrate craving in patients; assay: Timing of naltrexone action on carbohydrate craving in patients (onset, duration); type: in vivo, human
Description: Naltrexone is preferably administered to act at the time(s) of day when overeating or carbohydrate craving occurs. Naltrexone usually starts working about 3–4 hours after it is taken and continues to work for about six hours, but this timing varies from person to person. If a patient overeats only at supper, they might take a dose about 3–4 hours prior to that meal. If their problem is from after lunch until bedtime, they might take a dose after breakfast, after lunch, and before or after supper, all by trial and error, to find the optimal timing. Different amounts of naltrexone also may be administered at different times, depending on a patient's response to each dosage at each time. If the patient experiences carbohydrate cravings at all waking hours, the patient might take a slow-release (extended-release) or timed-release dose at bedtime that would ideally cover the next morning, or take a dose in the middle of the night if the patient awakens to urinate, as many do. The patient then might take additional doses upon arising, before lunch, mid-afternoon, and after supper or a slow-release dose upon arising. […] Finding what works for any given patient's particular pattern of overeating or carbohydrate craving is trial and error. If a patient's problem is only at dinner when they eat out, then they might take the naltrexone about 3–4 hours before the planned dinnertime only on such days.

[4] = system: food or carbohydrate craving in patients; assay: Low-dose naltrexone patient study: subjective naltrexone efficacy rating (zero to ten) on food or carbohydrate craving; type: in vivo, human; design: key to naltrexone efficacy rating: 0 = no benefit on craving, 10 = no food/carbohydrate craving; conditions: scale zero to ten
From the text: Fifty mg naltrexone tablets (REVIA) were ground, mixed with lactose and dispensed at lower doses into capsules by a compounding chemist according to standard methods in doses indicated in the following examples.
(§1) For each patient described below, the patient was given an initial dose and the dose was then tailored to the patient. The dose of naltrexone was lowered when the patient experienced side effects, including headaches, nausea and/or difficulty concentrating on complex tasks, or if naltrexone is inadequately effective at a higher dose. […] Although “final” values are provided, the study continues unless termination is indicated. The following patients, as well as additional patients are currently being studied. All patients were treated for at least two months, unless released from the study due to adverse effects that were not relieved by reducing the dosage of naltrexone.
The “rating” of naltrexone efficacy is a subjective scale of zero to ten. A value of zero means that the patient experiences no beneficial effects upon food or carbohydrate craving when taking naltrexone. A value of ten means that the patient experiences no food or carbohydrate craving after taking naltrexone, and can maintain control even when a tantalizing carbohydrate-laden treat, such as a hot buttered roll, a cookie or ice cream, is placed in front of the patient, even when the patient is hungry. For diabetics, a value of eight or greater is considered a success. In contrast, for obese, non-diabetics, a value of six or greater is considered a success because carbohydrates need to be controlled, but not as diligently controlled as with diabetics.
Of note, one patient who snacked between dinner and bedtime also had insomnia. […] Unless otherwise noted, all patients are diabetics. Patients who experienced a naltrexone efficacy rating of greater than or equal to 8 also experienced a suppression of both carbohydrate craving and any tendency to overeat, in general.

[5] = system: squirrel monkeys; conditions: cited from earlier work
[6] = system: patients; assay: Side effects of low-dose naltrexone therapy in patients; type: in vivo, human
From the text: These effects included tiredness, headache, nausea, impaired libido, diminished pleasure in daily activities and difficulty concentrating on complex tasks. Such problems nearly always occur after the first dose or a dosage increase. When they occur, the dose of naltrexone must either be lowered or naltrexone therapy must be discontinued if lower doses are ineffective.
Another side effect that some patients relate is a feeling of mental confusion that impairs concentration upon difficult tasks. Like a headache, this effect is unacceptable. For this reason, a patient typically is started on a very low dose—for example, and without limitation, 1 mg capsules—and the amount of each dose is then increased or decreased until an effective level is reached at which the patient experiences no side effects.
as §1

[7] = system: eating behavior in humans; conditions: cited from earlier work
[8] = patients, varies from person to person

For `O=C1CC[C@@]2(O)[C@H]3Cc4ccc(O)c5c4[C@@]2(CCN3CC2CC2)[C@H]1O5` [naltrexone HCl, naltrexone hydrochloride], the effect on cravings ([1]; 3 mg dose) is given as “cravings were curbed”, the effect on appetite ([1]; dose of 2 mg) is given as “appetite was unaffected” and the “effect on body weight” value [2] is given as “reduces body weight in animals without evidence of drug tolerance”. For the same compound, the “time covered by one small dose” value ([3]; certain patients) was “more than 24 hours”, the “time at which efficacy is apparent” value ([3]; patients, low dose of naltrexone) was “apparent by the second day of treatment” and the “time naltrexone continues to work” value [3, 8] was “about six”. The “time until naltrexone starts working after it is taken” value [3, 8] was 3 to 4 h, the naltrexone efficacy rating ([4]; Patient 1, diabetic, 207.5 lbs, 12.5 mg twice daily tailored to 1 mg three times daily) was at least 8 and the naltrexone efficacy rating ([4]; Patient 2, diabetic, 256 lbs, 12.5 mg/d tailored to 12.5 mg four times per day) was 7 to 8. The naltrexone efficacy rating ([4]; Patient 3, diabetic, 252 lbs, 12.5 mg when eating out tailored to 2 mg twice daily) was at least 8, the naltrexone efficacy rating ([4]; Patient 4, non-diabetic patient, 183 lbs, 8 mg twice daily adjusted to 25 mg three times daily) was 4 and the naltrexone efficacy rating ([4]; Patient 5, diabetic, 162 lbs, 8 mg after lunch, unchanged) was 10. For the same compound, the naltrexone efficacy rating ([4]; Patient 6, diabetic, 204 lbs, 6 mg twice daily tailored to 1 mg twice a day) was 10, the naltrexone efficacy rating ([4]; Patient 7, polycystic ovarian syndrome, 170 lbs, 6 mg three times daily tailored to 36 mg/d) was 8 to 9 and the naltrexone efficacy rating ([4]; Patient 8, diabetic, 182 lbs, 8 mg after lunch tailored to 8 mg four times daily) was 9.5. The naltrexone efficacy rating ([4]; Patient 9, diabetic, 106 lbs, 25 mg/d tailored to 50 mg/d, low doses not tried) was under 8, the naltrexone efficacy rating ([4]; Patient 10, diabetic, 161 lbs, 12.5 mg three times daily adjusted to 50 mg three times daily, doses less than 12.5 mg not tried) was “zero” and the naltrexone efficacy rating ([4]; Patient 11, diabetic, 183 lbs, 8 mg/d tailored to 32 mg/d) was at least 8. The naltrexone efficacy rating ([4]; Patient 12, diabetic, 114 lbs, 4 mg after lunch tailored to 4.5 mg) was “zero”, the naltrexone efficacy rating ([4]; Patient 13, diabetic, 208 lbs, 5 mg three times per day tailored to 8 mg twice per day) was 8.5 and the carbohydrate craving rating ([4]; Patient 14, diabetic, 226.5 lbs, 0.1 mg nine times per day adjusted to 50 mg three times daily) was “zero”. For the same compound, the naltrexone efficacy rating ([4]; Patient 15, diabetic, 184.25 lbs, 0.75 mg twice daily tailored to 0.25 mg twice daily) was 10, the anorexic effect ([5]; doses of 0.22 mg/kg) was “slight anorexic effect” and the anorexic effect ([5]; higher doses than 0.22 mg/kg) was “the anorexic effect was greater”. For the same compound, the side effects ([6]; Patient 1, even at the final dosage (1 mg three times daily), discontinued treatment) was “headaches”, the side effects ([6]; Patient 4, 8 mg twice daily adjusted to 25 mg three times daily, discontinued treatment) was “headaches” and the side effects ([6]; Patient 12, even at the final dosage (4.5 mg), discontinued treatment) was “headaches”. The side effects ([6]; Patient 15, final dose 0.25 mg twice daily) was “not at the final dose”, the side effects ([6]; Patient 15, initial dose 0.75 mg twice daily) was “decreased libido, confusion, diminished animation and excessive loss of appetite” and the side effects ([6]; obese person, 3 mg dose) was “no headache”. The side effects ([6]; obese person, dose of 2 mg) was “no headache”, the side effects ([6]; obese person, one 4 mg capsule) was “headache” and the side effects ([6]; one patient who snacked between dinner and bedtime and had insomnia) was “made them tired”. The risk ([7]; DeZwaan et al. review) was “potential for liver damage”, the “effect on sweet cravings” value ([7]; humans, Yeomans II, 50 mg, compared to other food categories) was “sweet cravings were not reduced” and the “effect on binge eating” value ([7]; humans, one long-term study, 100 mg doses) was “binge eating was affected long-term”. The “effect on food intake” value ([7]; humans, single-dose studies, short-term doses of 50 mg or greater) was “affect food intake”.
